Data from patent publication US20230203060A1 (GENFLEET THERAPEUTICS (SHANGHAI) INC., priority 2020, published 2023).

Tests used:
Type in all cases: cell-based, human
[1] = tested on: A549 cells (KRAS G12S mutant); test: Cell proliferation inhibition experiment, 3D spheroid, CellTiter-Glo, A549; details: Homo sapiens, A549, 120 h, A549 (KRAS G12S mutant) 3D spheroid, 5 days with compound, CellTiter-Glo; read-out: A549 IC50
Summary of the method: (§1)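 CellTiter-Glo luminescence after 5 days' compound treatment (3.16-fold series, 0.1% DMSO) of overnight-formed spheroids in 2% FBS medium: H358 seeded at 800 cells/well in RPMI-1640, A549 at 400 cells/well in F-12K. IC50 derived by four-parameter fit of inhibition normalized to DMSO control and blank.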

[2] = tested on: KRAS G12C mutant MIA PaCa-2 cells; test: Cell proliferation inhibition experiment, 3D spheroid, CellTiter-Glo, MIA PaCa-2; details: Homo sapiens, MIA PaCa-2, 120 h, 3D cell model in 384-well spheroid plate, 5 days, CellTiter-Glo; read-out: MIA-PaCa2 IC50
Summary of the method: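 Luminescent ATP read-out (CellTiter-Glo) after 5-day compound treatment of spheroids formed overnight from 200 MIA PaCa-2 cells/well; compounds in 3.16-fold series, 0.1% DMSO final. IC50 derived by four-parameter fit of percent inhibition, normalized to DMSO control and medium blank.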

[3] = tested on: KRAS G12C mutant NCI-H358 cells; test: Cell proliferation inhibition experiment, 3D spheroid, CellTiter-Glo, NCI-H358; details: Homo sapiens, NCI-H358, 120 h, NCI-H358 (KRAS G12C mutant) 3D spheroid, 5 days with compound, CellTiter-Glo; read-out: H358 IC50
Summary of the method: as §1

SMILES	IC50 [1] [µM]	IC50 [2] [µM]	IC50 [3] [µM]
C=CC(=O)N1CCN2C(=O)c3c(N4CCC[C@H]4C)nc(-c4c(O)cccc4F)c(Cl)c3OC[C@H]2C1 [Z48, (6aR)-8-acryloyl-1-((R)-2-methylpyrrolidin-1-yl)-4-chloro-3-(2-fluoro-6-hydroxyphenyl)-6,6a,7,8,9,10-hexahydro-12H-pyrazino[2,1-c]pyrido[3,4-f][1,4]oxazepin-12-one]	> 5	0.028	0.015
C=CC(=O)N1CCN2C(=O)c3c(N4CC(N(C)CC(F)F)CC4(C)C)nc(-c4ccccc4F)c(Cl)c3OCC2C1 (single isomer, unassigned) [Z659-2]	2.66	0.004	0.001
C=CC(=O)N1CCN2C(=O)c3c(N4C[C@H](N(C)C)CC4(C)C)nc(-c4cccc(C)c4F)c(Cl)c3OC[C@H]2C1 (single isomer, unassigned) [Z472-2]	1.65	0.053	0.008
C=CC(=O)N1CCN2C(=O)c3c(N4CCC[C@@H]4C)nc(-c4c(O)cccc4F)c(Cl)c3OC[C@H]2C1 [Z49, (6aR)-8-acryloyl-1-((S)-2-methylpyrrolidin-1-yl)-4-chloro-3-(2-fluoro-6-hydroxyphenyl)-6,6a,7,8,9,10-hexahydro-12H-pyrazino[2,1-c]pyrido[3,4-f][1,4]oxazepin-12-one]	> 5	0.007	0.004
C=CC(=O)N1CCN2C(=O)c3c(N4C[C@H](N(C)C)CC4(C)C)nc(-c4c(F)ccc(F)c4O)c(Cl)c3OC[C@H]2C1 (single isomer, unassigned) [Z475-2]	5.87	0.015	0.008
C=CC(=O)N1CCN2C(=O)c3c(N4C[C@@H](N(C)C)CC4(C)C)nc(-c4ccccc4)c(Cl)c3OC[C@H]2C1 (single isomer, unassigned) [Z655-1]	3.32	0.113	0.038
C=CC(=O)N1CCN2C(=O)c3c(N4C[C@@H](C(=O)O)CC4(C)C)nc(-c4c(O)cccc4F)c(Cl)c3OC[C@H]2C1 (single isomer, unassigned) [Z458-1]	> 10	> 1	0.189
C=CC(=O)N1CCN2C(=O)c3c(N4C[C@@H](N(C)CC(F)(F)F)CC4(C)C)nc(-c4ccccc4F)c(Cl)c3OC[C@H]2C1 (single isomer, unassigned) [Z491]	4.53	0.007	0.0014
C=CC(=O)N1CCN2C(=O)c3c(N4CCOC[C@@H]4C)nc(-c4c(O)cccc4F)c(Cl)c3OC[C@H]2C1 [Z32]	> 5	0.011	0.009
C=CC(=O)N1CCN2C(=O)c3c(N4CCC(OC)C4(C)C)nc(-c4c(N)cccc4F)c(Cl)c3OC[C@H]2C1 (stereo partly drawn) [Z506, (6aR)-8-acryloyl-3-(2-amino-6-fluorophenyl)-4-chloro-1-(3-methoxy-2,2-dimethylpyrrolidin-1-yl)-6,6a,7,8,9,10-hexahydro-12H-pyrazino[2,1-c]pyrido[3,4-f][1,4]oxazepin-12-one]	9.19	0.0022	0.0008
C=CC(=O)N1CCN2C(=O)c3c(N4CC(O)CC4(C)C)nc(-c4c(O)cccc4F)c(Cl)c3OC[C@H]2C1 (stereo partly drawn) [Z50, (6aR)-8-amyloyl-4-chloro-3-(2-fluoro-6-hydroxyphenyl)-1-(4-hydroxy-2,2-dimethylpyrrolidin-1-yl)-6,6a,7,8,9,10-hexahydro-12H-pyrazino[2,1-c]pyrido[3,4-f][1,4]oxazepin-12-one]	> 5	0.002	0.002
C=CC(=O)N1CCN2C(=O)c3c(N4CCC5CC54)nc(-c4c(O)cccc4F)c(Cl)c3OC[C@H]2C1 (stereo partly drawn) [Z39, (6aR)-8-acryloyl-1-(2-azabicyclo[3.1.0]hexart-2-yl)-4-chloro-3-(2-fluoro-6-hydroxyphenyl)-6,6a,7,8,9,10-hexahydro-12H-pyrazino[2,1-c]pyrido[3,4-f][1,4]oxazepin-12-one]	3.05	0.02	0.009
C=CC(=O)N1CCN2C(=O)c3c(N4CCOC(C)(C)C4)nc(-c4c(O)cccc4F)c(Cl)c3OC[C@H]2C1 [Z37, (6aR)-8-acryloyl-4-chloro-1-(2,2-dimethylmorpholino)-3-(2-fluoro-6-hydroxyphenyl)-6,6a,7,8,9,10-hexahydro-12H-pyrazino[2,1-c]pyrido[3,4-f][1,4]oxazepin-12-one]	> 30	0.012	0.009

Second part, the compound after the results:

IC50 [1] [µM]	IC50 [2] [µM]	IC50 [3] [µM]	SMILES
> 5	0.007	0.004	C=CC(=O)N1CCN2C(=O)c3c(N4CCN(C)C[C@@H]4C)nc(-c4c(O)cccc4F)c(Cl)c3OC[C@H]2C1 [Z51, (6aR)-8-acryloyl-4-chloro-1-((S)-2,4-dimethylpiperazin-1-yl)-3-(2-fluoro-6-hydroxyphenyl)-6,6a,7,8,9,10-hexahydro-12H-pyrazino[2,1-c]pyrido[3,4-f][1,4]oxazepin-12-one]
5.72	0.363	0.158	C=CC(=O)N1CCN2C(=O)c3c(N4CCN(C)C[C@@H]4C)nc(-c4c(F)cccc4OC)c(F)c3OC[C@H]2C1 [Z451, (6aR)-8-acryloyl-1-((S)-2,4-dimethylpiperazin-1-yl)-4-fluoro-3-(2-fluoro-6-methoxyphenyl)-6,6 a,7,8,9,10-hexahydro-12H-pyrazino[2,1-c]pyrido[3,4-f][1,4]oxazepin-12 (6 aH)-one]
9.61	0.004	0.003	C=CC(=O)N1CCN2C(=O)c3c(N4C[C@@H](N5CCN(C)CC5)C[C@@H]4C)nc(-c4ccccc4F)c(Cl)c3OC[C@H]2C1 [Z470-2]
5.74	0.014	0.0078	C=CC(=O)N1CCN2C(=O)c3c(N4C[C@@H](N5CC(F)(F)C5)CC4(C)C)nc(-c4ccccc4F)c(Cl)c3OC[C@H]2C1 (single isomer, unassigned) [Z525-2]
2.95	0.522	0.0627	C=CC(=O)N1CCN2C(=O)c3c(NC(C)(C)C)nc(-c4ccccc4F)c(Cl)c3OC[C@H]2C1 [Z457, (R)-8-acryloyl-1-(tert-butylamino)-4-chloro-3-(2-fluorophenyl)-6,6a,7,8,9,10-hexahydro-12H-pyrazino[2,1-c]pyrido[3,4-f][1,4]oxazepin-12-one]
9.73	0.0228	0.0094	C=CC(=O)N1CCN2C(=O)c3c(N4CCN(C)C[C@@H]4C)nc(-c4c(F)cccc4C(F)F)c(Cl)c3OC[C@H]2C1 [Z456, (6aR)-8-acryloyl-4-chloro-3-(2-(difluoromethyl)-6-fluorophenyl)-1-((S)-2,4-dimethylpiperazin-1-yl)-6,6a,7,8,9,10-hexahydro-12H-pyrazino[2,1-c]pyrido[3,4-f][1,4]oxazepin-12-one]
3.17	0.0245	0.0058	C=CC(=O)N1CCN2C(=O)c3c(N4CC(N5CCC(F)(F)C5)CC4(C)C)nc(-c4ccccc4F)c(Cl)c3OC[C@H]2C1 (stereo partly drawn) [Z532, (6aR)-8-acryloyl-4-chloro-1-(3,3-difluoro-5′,5′-dimethyl-[1,3′-bipyrrolidin]-1′-yl)-3-(2-fluorophenyl)-6,6a,7,8,9,10-hexahydro-12H-pyrazino[2,1-c]pyrido[3,4-f][1,4]oxazepin-12-one]
4.72	0.031	0.012	C=CC(=O)N1CCN2C(=O)c3c(N4C[C@H](N(C)CCO)CC4(C)C)nc(-c4ccccc4F)c(Cl)c3OC[C@H]2C1 (single isomer, unassigned) [Z658-2]
3.28	0.016	0.004	C=CC(=O)N1CCN2C(=O)c3c(N4CC(N5CCOCC5)CC4(C)C)nc(-c4ccccc4F)c(Cl)c3OC[C@H]2C1 (single isomer, unassigned) [Z468-1]
2.66	0.0168	0.0072	C=CC(=O)N1CCN2C(=O)c3c(N4C[C@H](N5CCN(C)CC5)CC4(C)C)nc(-c4ccccc4F)c(Cl)c3OC[C@H]2C1 (single isomer, unassigned) [Z454-2]
9.15	0.039	0.0188	C=CC(=O)N1CCN2C(=O)c3c(N4CCN(C)C[C@@H]4C)nc(-c4ccccc4F)c(Cl)c3OC[C@H]2C1 [Z407-1, (R)-8-acryloyl-4-chloro-1-((S)-2,4-dimethylpiperazin-1-yl)-3-(2-fluorophenyl)-6,6a,7,8,9,10-hexahydro-12H-pyrazino[2,1-c]pyrido[3,4-f][1,4]oxazepin-12-one]
5.23	0.0006	0.0005	C=CC(=O)N1CCN2C(=O)c3c(N4C[C@@H](N5CCN(C)CC5)CC4(C)C)nc(-c4c(O)cccc4F)c(Cl)c3OC[C@H]2C1 (single isomer, unassigned) [Z469-1]
2.13	0.0047	0.002	C=CC(=O)N1CCN2C(=O)c3c(N4CC(N5CCN(C)CC5)CC4(C)C)nc(-c4ccccc4F)c(Cl)c3OC[C@H]2C1 (stereo partly drawn) [Z454, (6aR)-8-acryloyl-4-chloro-1-(2,2-dimethyl-4-(4-methylpiperazin-1-yl)pyrrolidin-1-yl)-3-(2-fluorophenyl)-6,6a,7,8,9,10-hexahydro-12H-pyrazino[2,1-c]pyrido[3,4-f][1,4]oxazepin-12-one]
6.71	0.0452	0.0166	C=CC(=O)N1CCN2C(=O)c3c(N4CC(N(C)C)CC4(C)C)nc(-c4ccccc4F)c(Cl)c3OC[C@H]2C1 (single isomer, unassigned) [Z453-2]
